Data taken from ChEMBL document CHEMBL1201862, “PubChem BioAssay data set” (2004).
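All cell lines were grown in 96-well plates and treated with compound for 48 hours. GI50: concentration for 50% inhibition of growth.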 Active and inactive are the calls of the source. Cut-off read from the data, not from the text of the source: active = GI50 up to about 1.1 µM and inactive = higher.

Experiments:
Assay in all cases: inhibition of tumour cell growth, NCI panel, 48 h
HCT-116 = system: HCT-116
CCRF-CEM = system: CCRF-CEM
HOP-92 = system: HOP-92
UACC-62 = system: UACC-62
NCI/ADR-RES = system: NCI/ADR-RES
M14 = system: M14
MOLT-4 = system: MOLT-4
HL-60 = system: HL-60
NCI-H226 = system: NCI-H226
SK-OV-3 = system: SK-OV-3
SF-295 = system: SF-295
UO-31 = system: UO-31
OVCAR-5 = system: OVCAR-5
SNB-75 = system: SNB-75
A549 = system: A549
SNB-19 = system: SNB-19
HCT-15 = system: HCT-15
OVCAR-3 = system: OVCAR-3
Malme-3M = system: Malme-3M
LOX IMVI = system: LOX IMVI

| Compound | GI50 (HCT-116) | GI50 (CCRF-CEM) | GI50 (HOP-92) | GI50 (UACC-62) | GI50 (NCI/ADR-RES) | GI50 (M14) | GI50 (MOLT-4) | GI50 (HL-60) | GI50 (NCI-H226) | GI50 (SK-OV-3) | GI50 (SF-295) | GI50 (UO-31) | GI50 (OVCAR-5) | GI50 (SNB-75) | GI50 (A549) | GI50 (SNB-19) | GI50 (HCT-15) [µM] | GI50 (OVCAR-3) | GI50 (Malme-3M) | GI50 (LOX IMVI) |
| --- | --- | --- | --- | --- | --- | --- | --- | --- | --- | --- | --- | --- | --- | --- | --- | --- | --- | --- | --- | --- |
| CCOC(=O)c1ccc(-c2cccs2)n1C | > 95.1 µM (inactive) | 71.8 µM (inactive) | > 43.1 µM (inactive) | 58.5 µM (inactive) | > 87.5 µM (inactive) | > 100 µM (inactive) | 39.4 µM (inactive) | > 69.5 µM (inactive) | > 100 µM (inactive) | > 87.3 µM (inactive) | > 95.3 µM (inactive) | 43.7 µM (inactive) | > 100 µM (inactive) | > 100 µM (inactive) | > 100 µM (inactive) | > 100 µM (inactive) | 51.5 | > 100 µM (inactive) | > 67.1 µM (inactive) | > 77.8 µM (inactive) |
| CC(=O)[C@H]1CC[C@H]2[C@@H]3CCC4=CC(=O)CC[C@]4(C)[C@H]3CC[C@]12C [PROGESTERONE] | 14.5 µM (inactive) | 15.7 µM (inactive) | 25.7 µM (inactive) | 14.7 µM (inactive) | 13.7 µM (inactive) | 17.5 µM (inactive) | 12.1 µM (inactive) | 9.98 µM (inactive) | 11.7 µM (inactive) | 20.4 µM (inactive) | 25.9 µM (inactive) | 11.4 µM (inactive) | 19.5 µM (inactive) | 26.1 µM (inactive) | 25.3 µM (inactive) | 24.1 µM (inactive) | 18.9 | 17.3 µM (inactive) | 17.3 µM (inactive) | 17.5 µM (inactive) |
| CCOC(=O)Cn1nnc2cc(Nc3nc4ccccc4nc3C(=O)OCC)ccc21 | > 100 µM (inactive) | > 100 µM (inactive) | 20.9 µM (inactive) | > 100 µM (inactive) | 64.9 µM (inactive) | > 100 µM (inactive) | > 100 µM (inactive) | > 100 µM (inactive) | > 100 µM (inactive) | 50.2 µM (inactive) | 26.4 µM (inactive) | 2 µM (inactive) | > 100 µM (inactive) | 4.21 µM (inactive) | > 100 µM (inactive) | 29 µM (inactive) | > 100 | > 100 µM (inactive) | > 100 µM (inactive) | > 100 µM (inactive) |
| COc1cc2oc3c(c(=O)c2c(O)c1/C=C/C(C)C)C(C=C(C)C)Oc1cc(O)ccc1-3 (stereo not given) | 14.4 µM (inactive) | 5.53 µM (inactive) | 15.6 µM (inactive) | 17.2 µM (inactive) | 16.1 µM (inactive) | 13.3 µM (inactive) | 4.83 µM (inactive) | 17.8 µM (inactive) | 17.9 µM (inactive) | 16.6 µM (inactive) | 17.1 µM (inactive) | 12.1 µM (inactive) | 17 µM (inactive) | 15.3 µM (inactive) | 15 µM (inactive) | 16.4 µM (inactive) | 15.8 | 15 µM (inactive) | 22.5 µM (inactive) | 14.2 µM (inactive) |
| C=C1CC(Cn2cc(Br)c(=O)[nH]c2=O)(c2ccc(-c3ccccc3)cc2)OC1=O (stereo not given) | 0.301 µM (active) | 0.165 µM (active) | 0.0308 µM (active) | 1.12 µM (active) | 1.41 µM (inactive) | 1.43 µM (inactive) | 0.552 µM (active) | 0.0975 µM (active) | 1.83 µM (inactive) | 4.31 µM (inactive) | 4.45 µM (inactive) | 2.03 µM (inactive) | 4.8 µM (inactive) | 4.49 µM (inactive) | 5.31 µM (inactive) | 12.6 µM (inactive) | 1.61 | 1.63 µM (inactive) | 1.56 µM (inactive) | 0.582 µM (active) |
| Nc1ccc(C(=O)Nc2ccccc2N)cc1 [DINALINE] | 14.2 µM (inactive) | 11.4 µM (inactive) | 37.9 µM (inactive) | 16.1 µM (inactive) | 3.21 µM (inactive) | 65.2 µM (inactive) | 11.8 µM (inactive) | 3.37 µM (inactive) | > 78.5 µM (inactive) | > 100 µM (inactive) | 26.1 µM (inactive) | 42.6 µM (inactive) | 8.15 µM (inactive) | > 36.3 µM (inactive) | 38.6 µM (inactive) | > 100 µM (inactive) | 54 | 29.1 µM (inactive) | 5.92 µM (inactive) | 21 µM (inactive) |
| Cc1cccc2c(N)c3cccc(C(=O)NCC[N+](C)(C)Cc4c([N+](=O)[O-])ncn4C)c3nc12 | 26.4 µM (inactive) | 18.9 µM (inactive) | 40.6 µM (inactive) | 33.7 µM (inactive) | > 49.9 µM (inactive) | 52.4 µM (inactive) | 3.05 µM (inactive) | 5.92 µM (inactive) | 29.2 µM (inactive) | 31.6 µM (inactive) | 25.4 µM (inactive) | 16.6 µM (inactive) | 23.6 µM (inactive) | 27.4 µM (inactive) | 3.78 µM (inactive) | 25.8 µM (inactive) | 27 | 41.8 µM (inactive) | > 43.6 µM (inactive) | 11.4 µM (inactive) |
| ClCc1nn(-c2ccccc2)c(CCl)c1CCl | 2.33 µM (inactive) | 1.17 µM (inactive) | 3.33 µM (inactive) | 3.47 µM (inactive) | 5.57 µM (inactive) | 3.3 µM (inactive) | 1.72 µM (inactive) | 1.82 µM (inactive) | 4.45 µM (inactive) | 8.89 µM (inactive) | 6 µM (inactive) | 4.74 µM (inactive) | 7.16 µM (inactive) | 1.74 µM (inactive) | 7.66 µM (inactive) | 6.73 µM (inactive) | 3.33 | 3.47 µM (inactive) | 2.99 µM (inactive) | 1.47 µM (inactive) |
